Key:
[1] = tested on: MiaPaca human pancreatic carcinoma cells; assay: Cell proliferation assay (Alamar Blue), MiaPaCa; format: cell-based; conditions: MIA PaCa-2, MiaPaCa cell line
Protocol: (§1) A representative cell-proliferation assay protocol using Alamar Blue dye (stored at 4° C., use 20 ul per well) is described hereafter.
(§2) 96-Well Plate Setup and Compound Treatment
(§3) • a. Split and trypsinize cells. • b. Count cells using hemocytometer. • c. Plate 4,000-5,000 cells per well in 100 μl of medium and seed into a 96-well plate according to the following plate layout. Add cell culture medium only to wells B10 to B12. Wells B1 to B9 have cells but no compound added.
(§4) • d. Add 100 μl of 2× drug dilution to each well in a concentration shown in the plate layout above. At the same time, add 100 μl of media into the control wells (wells B10 to B12). Total volume is 200 μl/well. • e. Incubate four (4) days at 37° C., 5% CO2 in a humidified incubator. • f. Add 20 μl Alamar Blue reagent to each well. • g. Incubate for four (4) hours at 37° C., 5% CO2 in a humidified incubator. • h. Record fluorescence at an excitation wavelength of 544 nm and emission wavelength of 590 nm using a microplate reader.
(§5) In the assays, cells are cultured with a test compound for approximately four days, the dye is then added to the cells and fluorescence of […] dye is detected after approximately four hours. Different types of cells can be utilized in the assays (e.g., HCT-116 human colorectal carcinoma cells, PC-3 human prostatic cancer cells and MiaPaca human pancreatic carcinoma cells).

PanC1 = assay: Cell proliferation assay (Alamar Blue), PanC1; format: cell-based; conditions: Homo sapiens, PANC-1; PanC1 cell line
Protocol: as §1, §2, §3, §4, §5

[2] = tested on: HCT-116 human colorectal carcinoma cells; assay: Cell proliferation assay (Alamar Blue), HCT-116; format: cell-based; conditions: HCT-116 cell line
Protocol: as §1, §2, §3, §4, §5

recombinant human CK2 = target: T1, recombinant human CK2 (Homo sapiens, UniProt P68400); assay: Cell-free CK2 assay; format: biochemical; conditions: for inhibition at 0.5 µM: read-out: CK2: % inh 500 nM
T1 construct: purchased Upstate
T1 sequence (P68400 whole entry): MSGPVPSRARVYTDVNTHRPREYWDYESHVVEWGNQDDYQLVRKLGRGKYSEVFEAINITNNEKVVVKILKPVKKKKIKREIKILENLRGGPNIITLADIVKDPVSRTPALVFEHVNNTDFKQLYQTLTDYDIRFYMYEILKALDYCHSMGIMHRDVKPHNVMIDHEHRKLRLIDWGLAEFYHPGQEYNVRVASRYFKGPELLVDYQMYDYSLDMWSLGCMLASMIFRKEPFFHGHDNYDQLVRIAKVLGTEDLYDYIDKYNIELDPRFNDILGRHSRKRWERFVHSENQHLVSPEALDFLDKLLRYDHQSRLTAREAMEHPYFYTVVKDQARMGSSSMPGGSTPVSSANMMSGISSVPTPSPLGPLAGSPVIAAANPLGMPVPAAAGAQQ
T1 sequence (P67870 whole entry partner): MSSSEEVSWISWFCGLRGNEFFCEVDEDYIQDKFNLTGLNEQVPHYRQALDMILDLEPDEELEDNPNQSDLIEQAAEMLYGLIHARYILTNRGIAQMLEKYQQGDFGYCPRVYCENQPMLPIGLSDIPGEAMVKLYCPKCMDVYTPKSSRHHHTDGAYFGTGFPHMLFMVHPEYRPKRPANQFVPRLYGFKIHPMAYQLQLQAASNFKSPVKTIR
Protocol: Modulatory activity of compounds described herein is assessed in vitro in cell-free CK2 assays. These assays are described hereafter.
Test compounds in aqueous solution are added at a volume of 10 microliters, to a reaction mixture comprising 10 microliters Assay Dilution Buffer (ADB; 20mM MOPS, pH 7.2, 25 mM beta-glycerolphosphate, 5 mM EGTA, 1 mM sodium orthovanadate and 1 mM dithiothreitol), 10 microliters of substrate peptide (RRRDDDSDDD (SEQ ID NO:4), dissolved in ADB at a concentration of 1 mM), 10 microliters of recombinant human CK2 (25 ng dissolved in ADB; Upstate). Reactions are initiated by the addition of 10 microliters of ATP Solution (90% 75 mM MgC12, 75 micromolar ATP dissolved in ADB; 10% [γ-^33P]ATP (stock 1 mCi/100 μl; 3000 Ci/mmol (Perkin Elmer) and maintained for 10 minutes at 30 degrees C. The reactions are quenched with 100 microliters of 0.75% phosphoric acid, then transferred to and filtered through a phosphocellulose filter plate (Millipore). After washing each well 5 times with 0.75% phosphoric acid, the plate is dried under vacuum for 5 min and, following the addition of 15 ul of scintillation fluid to each well, the residual radioactivity is measured using a Wallac […].

MDA-MB231 = assay: Cell proliferation assay (Alamar Blue), MDA-MB231; format: cell-based; conditions: Homo sapiens, MDA-MB-231; MDA-MB231 cell line
Protocol: as §1, §2, §3, §4, §5

Jurkat = assay: Cell proliferation assay (Alamar Blue), Jurkat; format: cell-based; conditions: Homo sapiens; Jurkat cell line
Protocol: as §1, §2, §3, §4, §5

BxPC3 = assay: Cell proliferation assay (Alamar Blue), BxPC3; format: cell-based; conditions: Homo sapiens, BXPC-3; BxPC3 cell line; read-out: Bx-PC3
Protocol: as §1, §2, §3, §4, §5

MV-4-11 = assay: Cell proliferation assay (Alamar Blue), MV-4-11; format: cell-based; conditions: Homo sapiens, MV4-11; MV-4-11 cell line
Protocol: as §1, §2, §3, §4, §5

K562 = assay: Cell proliferation assay (Alamar Blue), K562; format: cell-based; conditions: Homo sapiens; K562 cell line
Protocol: as §1, §2, §3, §4, §5

[3] = tested on: PC-3 human prostatic cancer cells; assay: Cell proliferation assay (Alamar Blue), PC3; format: cell-based; conditions: PC3 cell line
Protocol: as §1, §2, §3, §4, §5

| SMILES | IC50 [1] | IC50 (PanC1) | IC50 [2] | inhibition at 0.5 µM (recombinant human CK2) | IC50 (MDA-MB231) | IC50 (Jurkat) | IC50 (BxPC3) | IC50 (MV-4-11) | IC50 (K562) | IC50 [3] | IC50 (recombinant human CK2) |
| --- | --- | --- | --- | --- | --- | --- | --- | --- | --- | --- | --- |
| NC(=O)c1ccc2c(c1)nc(-c1ccccc1)c1nc(NC3CC3)ncc12 | 5.2 µM | 25.9 µM | 1100 nM | 45% | 35.7 µM | 500 nM | 1.1 µM |  |  |  |  |
| O=C(O)c1ccc2c(c1)nc(-c1cccc(Cl)c1)c1ccncc12 | > 10 µM |  | > 10000 nM | 95% | > 10 µM |  | > 10 µM | > 10 µM | 0.9 µM | > 10 µM | 30 nM |
| COC(=O)c1ccc2c(c1)nc(-c1ccccc1)c1nc(NC3CC3)ncc12 [methyl 3-(cyclopropylamino)-5-phenylpyrimido[4,5-c]quinoline-8-carboxylate] | 3.2 µM | 8.7 µM | 2600 nM | -27% | 3.4 µM | 1100 nM | 1.9 µM |  |  |  |  |
| O=C(O)c1ccc2c(c1)nc(-c1ccccc1F)c1ccncc12 | > 10 µM |  | > 10000 nM | 97% |  |  |  | > 10 µM | > 10 µM | 4.1 µM | 106 nM |
| COC(=O)c1ccc2c(c1)nc(-c1cnn(C)c1)c1nc(SC)ncc12 [Methyl 5-(1-methyl-1H-pyrazol-4-yl)-3-(methylthio)pyrimido[4,5-c]quinoline-8-carboxylate] | > 62.5 µM | > 62.5 µM | > 10000 nM | 68% | > 62.5 µM | 47600 nM | > 62.5 µM |  |  |  |  |
| COC(=O)c1ccc2c(c1)nc(-c1ccccc1)c1nc(S(C)(=O)=O)ncc12 [methyl 3-(methylsulfonyl)-5-phenylpyrimido[4,5-c]quinoline-8-carboxylate] | 5.5 µM | 9.8 µM | 2700 nM | -18% | 6.4 µM | 700 nM | 10.6 µM |  |  |  |  |
| COC(=O)c1ccc2c(c1)nc(-c1cnn(C)c1)c1nc(NC3CC3)ncc12 | 0.6 µM | 1.4 µM | > 10000 nM | 10% | 17.2 µM | > 30000 nM | > 30 µM |  |  |  |  |
| CN1CCN(C(=O)c2ccc3c(c2)nc(-c2cccc(N)c2)c2ccncc23)CC1 | > 10 µM |  | > 10000 nM | 19% |  |  |  | > 10 µM | > 10 µM | > 10 µM |  |
